Assays:
[1] = test system: ischemia and reperfusion of the heart or skeletal muscle; details: rabbits, cited from earlier work
[2] = test system: colitis induced by intraluminal trinitrobenzene sulfonic acid; details: rats, colitis by trinitrobenzene sulfonic acid in 50% ethanol; cited from earlier work
Human PARP-1 enzyme = target: T1, Human PARP-1 enzyme (Homo sapiens, UniProt P09874); test: In vitro scintillation proximity assay (SPA) for PARP-1 inhibitory activity; type: biochemical; details: nicked DNA activated PARP-1, [3H]-NAD+, biotinylated histones; tested between 10^-5 M and 3x10^-9 M; read-out: in vitro SPA assay PARP-1 pIC50 (converted)
T1 construct: purchased Trevigen
Experimental: C.1. In Vitro Scintillation Proximity Assay (SPA) for PARP-1 Inhibitory Activity
Compounds of the present invention were tested in an in vitro assay based on SPA technology (proprietary to GE healthcare).
In principle, the assay relies upon the well established SPA technology for the detection of poly(ADP-ribosyl)ation of biotinylated target proteins, i.e histones. This ribosylation is induced using nicked DNA activated PARP-1 enzyme and [^3H]-nicotinamide adenine dinucleotide ([^3H]-NAD^+) as ADP-ribosyl donor.
Histones (type II-A, supplier: Sigma) were biotinylated using the biotinylation kit of Amersham and stored aliquoted at −20° C. A stock solution of 100 mg/ml SPA poly(vinyl toluene) (PVT) beads (supplier: Amersham) was made in PBS. A stock solution of 61.6 nM [^3H]-NAD^+ was made by adding [^3H]-NAD^+ (0.1 mCi/ml, supplier: Perkin Elmer) to incubation buffer (50 mM Tris/HCl, pH 8; 0.2 mM DTT; 4 mM MgCl2). A solution of 4 mM NAD^+ (supplier: Sigma) was made. Human PARP-1 enzyme was obtained from Trevigen. Biotinylated histones and PVT-SPA beads were mixed and pre-incubated for 30 min. at room temperature. PARP-1 enzyme (concentration was lot dependent) was mixed with the nicked DNA and the mixture was pre-incubated for 30 min. at 4° C. Equal parts of this histones/PVT-SPA beads solution and PARP-1 enzyme/DNA solution were mixed and 75 μl of this mixture together with 1 μl of compound in DMSO and 25 μl of [^3H]-NAD^+ was added per well into a 96-well microtiterplate. The final concentrations in the incubation mixture were 2 μg/ml for the biotinylated histones, 2 mg/ml for the PVT-SPA beads, 0.25 μg/ml for the nicked DNA and between 0.1-0.2 μg/ml for the PARP-1 enzyme. After incubation of the mixture for 20 min. at room temperature, the reaction was terminated by adding 100 μl of 4 mM NAD^+ in water (final concentration 2 mM) and plates were mixed. The beads were sedimented by centrifugation (10 min, 800 rpm). and plates transferred to a TopCountNXT™ (Packard) for scintillation counting, values were expressed as counts per minute (cpm). For each experiment, controls (containing PARP-1 enzyme and DMSO without compound), a blank incubation (containing DMSO but no PARP-1 enzyme, no DNA or compound) and samples (containing PARP-1 enzyme, DNA and compound dissolved in DMSO) were run in parallel. All compounds tested were dissolved and eventually further diluted in DMSO. A dose-response curve was made wherein the compounds were tested at concentrations between 10^−5M and 3×10^−9M. In each test, the blank value was subtracted from both the control and the sample values. The control sample represented maximal PARP-1 enzyme activity. For each sample, the amount of cpm was expressed as a percentage of the mean cpm value of the controls. When appropriate, IC50-values (concentration of the drug, needed to reduce the PARP-1 enzyme activity to 50% of the control) were computed using linear interpolation between the experimental points just above and below the 50% level. Herein the effects of test compounds are expressed as pIC50 (the negative log value of the IC50-value). As a reference compound, 4-amino-1,8-naphthalimide was included to validate the SPA assay.

TANK-2 enzyme = target: T2, TANK-2 enzyme (Homo sapiens, UniProt Q9H2K2); test: In vitro scintillation proximity assay (SPA) for TANK-2 inhibitory activity; type: biochemical; details: auto-poly(ADP-ribosyl)ation, Ni flash plates; 96-well results if available, otherwise 384-well; tested between 10^-5 M and 3x10^-8 M; read-out: in vitro SPA assay TANK-2 pIC50 (converted)
T2 construct: made in house
T2 sequence (Q9H2K2 1-1166): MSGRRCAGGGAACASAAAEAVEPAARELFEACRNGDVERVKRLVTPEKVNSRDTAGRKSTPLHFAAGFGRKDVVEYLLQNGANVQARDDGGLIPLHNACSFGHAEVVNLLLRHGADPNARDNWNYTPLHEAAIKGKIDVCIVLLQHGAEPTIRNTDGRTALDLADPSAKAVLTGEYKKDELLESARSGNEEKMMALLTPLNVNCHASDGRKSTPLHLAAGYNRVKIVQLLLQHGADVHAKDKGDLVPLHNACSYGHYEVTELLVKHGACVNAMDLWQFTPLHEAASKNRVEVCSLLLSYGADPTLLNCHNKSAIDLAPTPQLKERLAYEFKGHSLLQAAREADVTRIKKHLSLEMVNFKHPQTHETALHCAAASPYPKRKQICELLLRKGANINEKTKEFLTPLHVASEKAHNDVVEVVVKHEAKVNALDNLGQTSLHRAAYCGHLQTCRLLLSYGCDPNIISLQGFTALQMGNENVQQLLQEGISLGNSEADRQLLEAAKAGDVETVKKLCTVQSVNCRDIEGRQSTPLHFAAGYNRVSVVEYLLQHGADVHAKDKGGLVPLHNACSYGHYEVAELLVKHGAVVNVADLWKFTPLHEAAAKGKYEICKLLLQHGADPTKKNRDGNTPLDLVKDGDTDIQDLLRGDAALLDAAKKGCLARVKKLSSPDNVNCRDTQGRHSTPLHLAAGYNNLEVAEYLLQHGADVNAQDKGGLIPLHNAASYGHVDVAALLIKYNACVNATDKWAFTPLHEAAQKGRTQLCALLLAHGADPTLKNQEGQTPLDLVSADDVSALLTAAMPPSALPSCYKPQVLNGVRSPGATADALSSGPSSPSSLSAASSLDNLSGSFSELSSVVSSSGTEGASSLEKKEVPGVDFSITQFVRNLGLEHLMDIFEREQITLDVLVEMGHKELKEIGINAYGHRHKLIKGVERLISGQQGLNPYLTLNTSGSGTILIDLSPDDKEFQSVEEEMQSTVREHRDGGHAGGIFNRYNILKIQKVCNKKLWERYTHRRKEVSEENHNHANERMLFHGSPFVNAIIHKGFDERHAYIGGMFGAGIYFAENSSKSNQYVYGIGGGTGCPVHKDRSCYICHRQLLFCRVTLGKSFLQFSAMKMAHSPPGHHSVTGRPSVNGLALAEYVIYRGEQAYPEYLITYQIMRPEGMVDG
Experimental: C.2. In Vitro Scintillation Proximity Assay (SPA) for TANK-2 Inhibitory Activity
Compounds of the present invention were tested in an in vitro assay based on SPA technology with Ni Flash plates (96 or 384 well).
In principle, the assay relies upon SPA technology for the detection of auto-poly(ADP-ribosyl)ation of TANK-2 protein using [^3H]-nicotinamide adenine dinucleotide ([^3H]-NAD^+) as ADP-ribosyl donor.
A stock solution of 100 nM [^3H]-NAD^+/NAD (0.1 mCi/ml, supplier: Perkin Elmer) and 0.25 mM NAD (Sigma) was made in assay buffer (60 mM Tris/HCl, pH 7.4; 0.9 mM DTT; 6 mM MgCl2). The TANK-2 enzyme was produced as described in EP1238063. 60 μl of assay buffer, together with 1 μl of compound in DMSO, 20 μl of [^3H]-NAD^+/NAD and 20 μl of TANK-2 enzyme (final concentration 8 μg/ml) was added per well into a 96-well Ni-coated flash plate (Perkin Elmer). After incubation of the mixture for 120 min. at room temperature, the reaction was terminated by adding 60 μl of stopsolution (42.6 mg NAD in 6 ml H2O). The plates were covered with a plate sealer and placed in a TopCountNX™ (Packard) for scintillation counting. Values were expressed as counts per minute (cpm). For each experiment, controls (containing TANK-2 enzyme and DMSO without compound), a blank incubation (containing DMSO but no TANK-2 enzyme or compound) and samples (containing TANK-2 enzyme and compound dissolved in DMSO) were run in parallel. All compounds tested were dissolved and eventually further diluted in DMSO. […] In each test, the blank value was subtracted from both the control and the sample values. The control sample represented maximal TANK-2 enzyme activity. For each sample, the amount of cpm was expressed as a percentage of the mean cpm value of the controls. When appropriate, IC50-values (concentration of the drug, needed to reduce the TANK-2 enzyme activity to 50% of the control) were computed using linear interpolation between the experimental points just above and below the 50% level. Herein the effects of test compounds are expressed as pIC50 (the negative log value of the IC50-value). As reference compounds, 3-aminobenzamide and 4-amino-1,8-naphtalimide were included to validate the SPA assay. Herein the assay was described using 96-well plates. In the assay using 384-well plates the same final concentrations were used and volumes were adapted.

T1 sequence (P09874 whole entry): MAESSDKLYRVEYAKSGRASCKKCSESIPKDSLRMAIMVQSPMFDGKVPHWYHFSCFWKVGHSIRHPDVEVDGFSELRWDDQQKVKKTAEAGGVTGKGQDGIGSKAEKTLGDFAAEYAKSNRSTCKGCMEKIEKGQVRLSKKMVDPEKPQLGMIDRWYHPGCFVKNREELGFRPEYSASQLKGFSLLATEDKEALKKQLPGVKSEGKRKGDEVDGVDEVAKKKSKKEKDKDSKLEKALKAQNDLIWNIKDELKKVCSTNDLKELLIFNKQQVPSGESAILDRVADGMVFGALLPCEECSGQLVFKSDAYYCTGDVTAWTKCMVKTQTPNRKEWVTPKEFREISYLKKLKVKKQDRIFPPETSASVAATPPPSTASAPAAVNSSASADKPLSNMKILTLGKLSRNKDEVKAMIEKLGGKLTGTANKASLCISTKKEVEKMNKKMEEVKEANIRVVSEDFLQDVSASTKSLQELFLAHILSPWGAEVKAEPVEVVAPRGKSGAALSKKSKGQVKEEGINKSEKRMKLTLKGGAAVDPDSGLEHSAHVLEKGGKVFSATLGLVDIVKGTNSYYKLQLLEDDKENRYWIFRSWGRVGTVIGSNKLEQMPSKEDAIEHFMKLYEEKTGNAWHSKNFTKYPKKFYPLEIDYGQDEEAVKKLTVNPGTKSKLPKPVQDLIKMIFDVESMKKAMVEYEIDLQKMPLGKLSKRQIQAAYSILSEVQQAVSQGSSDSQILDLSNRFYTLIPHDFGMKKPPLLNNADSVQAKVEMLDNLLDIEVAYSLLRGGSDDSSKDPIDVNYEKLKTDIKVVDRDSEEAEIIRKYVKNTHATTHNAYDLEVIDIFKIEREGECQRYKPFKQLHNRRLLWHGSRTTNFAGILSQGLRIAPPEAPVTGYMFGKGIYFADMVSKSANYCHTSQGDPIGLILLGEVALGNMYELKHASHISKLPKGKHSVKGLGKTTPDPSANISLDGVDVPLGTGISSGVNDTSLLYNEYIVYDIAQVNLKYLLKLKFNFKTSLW

IC50 (Human PARP-1 enzyme) | IC50 (TANK-2 enzyme) | melting point | SMILES | reduction in infarct size ([1]; single injection 1 mg/kg) | reduction in infarct size in the heart ([1]; single injection 10 mg/kg, one minute before occlusion or one minute before reperfusion) | effect on inflammatory response, morphology and energetic status of the distal colon [2]
0.201 µM | 0.225 µM | 163 °C | CCc1cc2ccc(C(O)CN3CCOCC3)cc2[nH]c1=O (stereo not drawn) [Compound 4] | – | – | –
0.000938 µM | 1.9 µM | 242 °C | CCc1cc2ccc(CN3CCN(c4ccccc4)CC3)cc2[nH]c1=O [Compound 6] | – | – | –
0.108 µM | 0.454 µM | 255 °C | CCc1cc2ccc(C(=O)N3CCc4ccccc4C3)cc2[nH]c1=O [Compound 10] | – | – | –
0.0513 µM | 0.0361 µM | 235 °C | CCOC(=O)c1cnc(N2CCN(Cc3ccc4cc(CC)c(=O)[nH]c4c3)CC2)nc1 [Compound 11] | – | – | –
0.0074 µM | 0.0362 µM | > 250 °C | CCc1cc2ccc(CN3CCN(c4ncc(C(N)=O)cn4)CC3)cc2[nH]c1=O [Compound 16] | – | – | –
0.00108 µM | 0.94 µM | 190 °C | Cc1cc2ccc(C(C)N3CCN(c4ccccc4C#N)CC3)cc2[nH]c1=O (stereo not drawn) [Compound 20] | – | – | –
0.000251 µM | > 10 µM | 198 °C | COc1ccccc1N1CCN(Cc2ccc3cc(C)c(=O)[nH]c3c2)CC1 [Compound 23] | – | – | –
0.00302 µM | 4.47 µM | 80 °C | CCc1cc2c(OC)cc(CN3CCN(c4ccccc4OC)CC3)cc2[nH]c1=O [Compound 64] | – | – | –
0.000759 µM | 2.14 µM | 133 °C | Cc1cc2ccc(C(C)N3CCCC3)cc2[nH]c1=O (stereo not drawn) [Compound 68] | – | – | –

Further lines, the compound ahead of its results:

SMILES | IC50 (Human PARP-1 enzyme) | IC50 (TANK-2 enzyme) | melting point | reduction in infarct size ([1]; single injection 1 mg/kg) | reduction in infarct size in the heart ([1]; single injection 10 mg/kg, one minute before occlusion or one minute before reperfusion) | effect on inflammatory response, morphology and energetic status of the distal colon [2]
Oc1cccc2c(O)nccc12 [1,5-dihydroxyisoquinoline] | – | – | – | 38-48% | – | –
NC(=O)c1cccc(N)c1 [3-amino-benzamide] | – | – | – | – | 32-42% | reduced the inflammatory response and restored the morphology and the energetic status of the distal colon
Cc1cc2ccc(CN3CCC(c4ccccc4)CC3)cc2[nH]c1=O [Compound 7] | 0.00152 µM | > 10 µM | 225 °C | – | – | –
CCc1cc2ccc(C(CO)N3CCC(Cc4ccccc4)CC3)cc2[nH]c1=O (stereo not drawn) [Compound 9] | 0.109 µM | 3.1 µM | 172 °C | – | – | –
CCc1cc2ccc(C(C(C)C)N3CCN(c4ccc(C#N)cn4)CC3)cc2[nH]c1=O (stereo not drawn) [Compound 13] | 0.00394 µM | 0.269 µM | 135 °C | – | – | –
CCc1cc2ccc(C(C)NCCc3c[nH]c4ccccc34)cc2[nH]c1=O (stereo not drawn) [Compound 14] | 0.0701 µM | 0.428 µM | 170 °C | – | – | –
CCc1cc2ccc(CNC3CCN(c4ncccn4)CC3)cc2[nH]c1=O [Compound 15] | 0.0774 µM | 2.15 µM | 168 °C | – | – | –

Source: patent US8404713B2, “Quinolinone derivatives as PARP inhibitors” (Janssen Pharmaceutica NV, priority 2007, dated 2013)
